Laboratory results reported in the supplement of paper PMC10307832.

Columns and labels:
Assay in all cases: relative viability (nuclei count vs DMSO), 5 days (fraction); higher = more cells survive
[1] = compound: O=C(O)c1ccc2c(c1)nc(Nc1cccc(Cl)c1)c1ccncc12 [Silmitasertib] + CC(=O)Nc1cccc(-n2c(=O)n(C3CC3)c(=O)c3c(Nc4ccc(I)cc4F)n(C)c(=O)c(C)c32)c1 [Trametinib] (partner 0.02 µM)
Summary of the method: (§1)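 Lung cancer cell lines in 1536-well plates got either a single drug or a fixed anchor-drug dose together with five library-drug doses (not always all listed) in √10 steps, by pin tool, on the day after seeding. Nuclei were counted after 5 days, and relative viability is the treated-to-vehicle ratio of nuclei counts. Values are medians of duplicate plates.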

[2] = compound: O=C(O)c1ccc2c(c1)nc(Nc1cccc(Cl)c1)c1ccncc12 [Silmitasertib] + CC1(C)CCC(c2ccc(Cl)cc2)=C(CN2CCN(c3ccc(C(=O)NS(=O)(=O)c4ccc(N[C@H](CCN5CCOCC5)CSc5ccccc5)c(S(=O)(=O)C(F)(F)F)c4)cc3)CC2)C1 [Navitoclax] (partner 0.5 µM)
Summary of the method: as §1

Silmitasertib + OSI-027 = compound: O=C(O)c1ccc2c(c1)nc(Nc1cccc(Cl)c1)c1ccncc12 [Silmitasertib] + COc1cccc2cc(-c3nc([C@H]4CC[C@H](C(=O)O)CC4)n4ncnc(N)c34)[nH]c12 [OSI-027] (partner 0.5 µM)
Summary of the method: as §1

[3] = compound: O=C(O)c1ccc2c(c1)nc(Nc1cccc(Cl)c1)c1ccncc12 [Silmitasertib] + Cc1cc(Nc2cc(N3CCN(C)CC3)nc(Sc3ccc(NC(=O)C4CC4)cc3)n2)n[nH]1 [Tozasertib] (partner 0.1 µM)
Summary of the method: as §1

Silmitasertib + Olaparib = compound: O=C(O)c1ccc2c(c1)nc(Nc1cccc(Cl)c1)c1ccncc12 [Silmitasertib] + O=C(c1cc(Cc2n[nH]c(=O)c3ccccc23)ccc1F)N1CCN(C(=O)C2CC2)CC1 [Olaparib] (partner 8 µM)
Summary of the method: as §1

Cell Line | relative viability ([1]; first compound 0.04 µM) | relative viability ([1]; first compound 0.4 µM) | relative viability ([1]; first compound 1.265 µM) | relative viability ([1]; first compound 4 µM) | relative viability ([2]; first compound 0.04 µM) | relative viability ([2]; first compound 0.4 µM) | relative viability ([2]; first compound 1.265 µM) | relative viability ([2]; first compound 4 µM) | relative viability (Silmitasertib + OSI-027; first compound 0.04 µM) | relative viability (Silmitasertib + OSI-027; first compound 0.4 µM) | relative viability (Silmitasertib + OSI-027; first compound 1.265 µM) | relative viability (Silmitasertib + OSI-027; first compound 4 µM) | relative viability ([3]; first compound 0.04 µM) | relative viability ([3]; first compound 0.4 µM) | relative viability ([3]; first compound 1.265 µM) | relative viability ([3]; first compound 4 µM) | relative viability (Silmitasertib + Olaparib; first compound 0.04 µM) | relative viability (Silmitasertib + Olaparib; first compound 0.4 µM) | relative viability (Silmitasertib + Olaparib; first compound 1.265 µM) | relative viability (Silmitasertib + Olaparib; first compound 4 µM)
NCI-H322M | 0.61 | 0.5 | 0.47 | 0.553 | 1.23 | 0.932 | 0.799 | 0.479 | 0.619 | 0.467 | 0.383 | 0.372 | 0.51 | 0.505 | 0.377 | 0.342 | 0.7 | 0.608 | 0.456 | 0.39
NCI-H441 | 0.562 | – | 0.313 | 0.231 | 0.463 | – | 0.509 | 0.385 | 0.629 | – | 0.337 | 0.26 | 0.61 | – | 0.512 | 0.472 | 0.604 | – | 0.647 | 0.341
NCI-H460 | 0.201 | 0.196 | 0.131 | 0.0739 | 1.26 | 1.2 | 1.3 | 1.04 | 0.822 | 0.688 | 0.64 | 0.672 | 0.556 | 0.119 | 0.405 | 0.523 | 0.387 | 0.269 | 0.553 | 0.575
NCI-H520 | 0.832 | 0.668 | 0.524 | 0.626 | 1.11 | 0.917 | 1.04 | 0.863 | 0.197 | 0.239 | 0.252 | 0.252 | 0.443 | 0.429 | 0.42 | 0.394 | 0.365 | 0.318 | 0.295 | 0.262
NCI-H596 | 0.765 | 0.684 | 0.764 | 0.796 | 1.09 | 0.882 | 0.902 | 0.787 | 0.749 | 0.471 | 0.68 | 0.472 | 0.967 | 0.735 | 0.624 | 0.799 | 0.659 | 0.597 | 0.685 | 0.654
NCI-H647 | 0.524 | 0.57 | 0.399 | 0.431 | 1.05 | 0.826 | 0.85 | 0.57 | 0.775 | 0.578 | 0.503 | 0.44 | 0.324 | 0.211 | 0.196 | 0.175 | 0.625 | 0.431 | 0.57 | 0.325
NCI-H727 | 0.415 | 0.338 | 0.328 | 0.348 | 0.425 | 0.343 | 0.365 | 0.275 | 0.701 | 0.426 | 0.48 | 0.488 | 0.584 | 0.62 | 0.681 | 0.609 | 0.709 | 0.59 | 0.584 | 0.681
NCI-H838 | 0.673 | 0.489 | 0.463 | 0.309 | 1.36 | – | 1.29 | 0.929 | 0.456 | – | 0.425 | 0.274 | 0.289 | – | 0.257 | 0.222 | 0.849 | 0.521 | 0.635 | 0.491
